What was measured:
[1] = Oxygen radical absorbency capacity (ORAC)
[2] = test system: THP-1 monocytes; assay: Protection from oxidative stress, MitoSOX Red mitochondrial superoxide indicator, flow cytometry; assay type: cell-based; details: 3 hours treatment, then H2O2 challenge 3 hours, sample 100 ug/ml final, positive control 100 uM, 0% = challenged negative control, 100% = unchallenged normal control
From the text: The assay described in this experiment measures oxidative stress occurring within the mitochondria. As discussed above, the biochemical reactions used by mitochondria to generate energy yielding ATP molecules also produce highly oxidizing superoxide free radical as a by-product. Using flow cytometry, the below example measures the protection various test samples provide from oxidative stress by monitoring the status of superoxide within mitochondria following treatment with the test materials.
MitoSOX Red mitochondrial superoxide indicator (Invitrogen cat#M36008) is a fluorescent dye that is selectively taken up by mitochondria. Once in the mitochondria, MitoSOX reacts with superoxide free radical to form a fluorescent product (excitation/emission maxima=510/580 nm) that binds to mitochondrial nucleic acids. A higher fluorescence reading corresponds to a higher level of superoxide free radical being present within the mitochondria.
Cell Culture: One 6 well plate is used per sample. Multiple plates may be prepared simultaneously. Refer to Table I for a plate description. THP-1 monocytes (ATCC cat# TIB-202) are plated at 1.5×10^6 cells/well in 6 well plates (contained in 2 ml/well RMPI 1640 media supplemented with 10% FBS) and incubated for 1 hour before treating.
Treatment: Glutathione monoethylester (GMEE, 100 uM final concentration) is used as a positive control. […]

Row | Structure (SMILES) | oxygen radical absorbency capacity (ORAC) [1] | protection from oxidative stress [2]
1 | COC(=O)c1cc(O)ccc1O [Methylgentisate, methylgentisate] | 25,605 μmol Teq/g | –
2 | CCOC(=O)CNC(=O)[C@H](CS)NC(=O)CC[C@H](N)C(=O)O [glutathione methyl ester] | – | 35%
